The record followed here is US12319929B2, “Compositions and methods for the treatment of Parkinson's disease” (VOYAGER THERAPEUTICS, INC., priority 2018, dated 2025).

The assay deals with patients with motor response fluctuations. Nature of the assay: UPDRS III AUC response to threshold and suprathreshold IV levodopa infusion. Type of assay: in vivo, human. The conditions noted are these: Baseline before AAV2-hAADC. As for the experimental part: On sequential days, patients received either a threshold (0.6 mg/mL; low-dose) or suprathreshold (1.2 mg/mL; high-dose) infusion of IV levodopa dosed at 1 mL/kg/hr for 2 hours. The order and threshold of IV levodopa dosing was randomized and double-blinded (LHLH, LHHL, HLHL, HLLH).
Oral carbidopa (25 mg) was administered 1-2 hours before, during, and 1-2 hours after the infusion. Participants' motor response was measured by UPDRS III (time to 30% change and duration of 30% responses); bradykinesia was measured by finger tapping rate; and dyskinesia was measured by Abnormal Involuntary Movement Scale (AIMS) scoring. Pharmacokinetics were assessed every 30 minutes after administration of IV levodopa.
Results for Group 1 are shown in FIG. 12a: results for Group 2 are shown in FIG. 12b; and results for Group 3 are shown in FIG. 12c.

As for `N[C@@H](Cc1ccc(O)c(O)c1)C(=O)O` [IV Levodopa, L-3,4-dihydroxyphenylalanine], the “UPDRS III AUC, mean (standard error)” value was −72.8 (13.1) (Suprathreshold (1.2 mg/kg/hr) IV Levodopa, Group 1 (N = 5)); −45.0 (13.5) (Suprathreshold (1.2 mg/kg/hr) IV Levodopa, Group 2 (N = 5)); −41.1 (13.8) (Suprathreshold (1.2 mg/kg/hr) IV Levodopa, Group 3 (N=3)); −22.1 (9.7) (Threshold (0.6 mg/kg/hr) IV Levodopa, Group 1 (N = 5)); −21.8 (5.9) (Threshold (0.6 mg/kg/hr) IV Levodopa, Group 2 (N = 5)); −16.1 (11.4) (Threshold (0.6 mg/kg/hr) IV Levodopa, Group 3 (N=3)).
